Key:
[1] = biological target: Casein kinase I isoform epsilon (Homo sapiens, UniProt P49674); experiment: Inhibition of human CK1 epsilon using casein as substrate after 2 hrs in presence of [33P]-ATP by scintillation counting analysis
[2] = biological target: CYP3A4 (Homo sapiens, UniProt P08684); experiment: Drug metabolism in human liver microsomes assessed as CYP3A4-mediated drug metabolism in presence of ketoconazole; assay type: ADME; details: with ketoconazole, read-out: Drug metabolism
[3] = Drug metabolism in human liver microsomes; assay type: ADME, Microsome; details: read-out: Drug metabolism
[4] = biological target: T1, Cytochrome P450 2D6 (Homo sapiens, UniProt P10635); experiment: Drug metabolism assessed as recombinant CYP2D6 (unknown origin)-mediated 3-(3-(pyridin-4-yl)-6-(4-(pyrrolidin-1-yl)-3,4-dihydropyridin-1(2H)-yl)imidazo[1,2-b]pyridazin-2-yl)phenol formation; assay type: ADME; details: recombinant enzyme
[5] = biological target: T1, Cytochrome P450 2D6; experiment: Drug metabolism assessed as recombinant CYP2D6 (unknown origin)-mediated 3-(3-(pyridin-4-yl)-6-(4-(pyrrolidin-1-yl)piperidin-1-yl)imidazo[1,2-b]pyridazin-2-yl)phenol formation; assay type: ADME; details: recombinant enzyme
[6] = biological target: T1, Cytochrome P450 2D6; experiment: Drug metabolism assessed as recombinant CYP2D6 (unknown origin)-mediated 4-(3-(pyridin-4-yl)-6-(4-(pyrrolidin-1-yl)piperidin-1-yl)imidazo[1,2-b]pyridazin-2-yl)phenol formation; assay type: ADME; details: recombinant enzyme

Sequence of Casein kinase I isoform epsilon (P49674 whole entry, canonical isoform): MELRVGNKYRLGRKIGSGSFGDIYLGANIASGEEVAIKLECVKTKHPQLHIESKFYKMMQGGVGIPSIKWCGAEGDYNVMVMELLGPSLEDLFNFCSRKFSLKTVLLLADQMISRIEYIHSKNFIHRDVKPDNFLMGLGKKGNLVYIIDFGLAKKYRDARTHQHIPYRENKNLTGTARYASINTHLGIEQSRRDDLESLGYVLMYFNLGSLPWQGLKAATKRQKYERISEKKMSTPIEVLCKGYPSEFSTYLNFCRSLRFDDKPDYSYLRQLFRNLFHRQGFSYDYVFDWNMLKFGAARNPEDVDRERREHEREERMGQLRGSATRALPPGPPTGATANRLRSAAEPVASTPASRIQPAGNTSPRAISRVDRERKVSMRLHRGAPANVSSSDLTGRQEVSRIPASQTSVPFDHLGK
Sequence of CYP3A4 (P08684 whole entry): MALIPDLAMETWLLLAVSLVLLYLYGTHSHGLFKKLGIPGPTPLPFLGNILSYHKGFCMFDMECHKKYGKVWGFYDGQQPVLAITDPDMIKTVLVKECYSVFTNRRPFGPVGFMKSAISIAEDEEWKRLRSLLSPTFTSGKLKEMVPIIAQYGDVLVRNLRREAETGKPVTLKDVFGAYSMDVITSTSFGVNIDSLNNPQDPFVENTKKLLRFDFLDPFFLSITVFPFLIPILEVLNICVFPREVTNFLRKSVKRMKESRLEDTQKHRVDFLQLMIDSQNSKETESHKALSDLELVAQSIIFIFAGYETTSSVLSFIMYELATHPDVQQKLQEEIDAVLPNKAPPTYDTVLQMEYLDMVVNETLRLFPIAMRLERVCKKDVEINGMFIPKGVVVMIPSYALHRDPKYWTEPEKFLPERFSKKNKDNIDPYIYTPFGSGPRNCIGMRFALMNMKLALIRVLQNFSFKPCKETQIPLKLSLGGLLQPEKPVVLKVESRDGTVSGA
T1 sequence (P10635 whole entry): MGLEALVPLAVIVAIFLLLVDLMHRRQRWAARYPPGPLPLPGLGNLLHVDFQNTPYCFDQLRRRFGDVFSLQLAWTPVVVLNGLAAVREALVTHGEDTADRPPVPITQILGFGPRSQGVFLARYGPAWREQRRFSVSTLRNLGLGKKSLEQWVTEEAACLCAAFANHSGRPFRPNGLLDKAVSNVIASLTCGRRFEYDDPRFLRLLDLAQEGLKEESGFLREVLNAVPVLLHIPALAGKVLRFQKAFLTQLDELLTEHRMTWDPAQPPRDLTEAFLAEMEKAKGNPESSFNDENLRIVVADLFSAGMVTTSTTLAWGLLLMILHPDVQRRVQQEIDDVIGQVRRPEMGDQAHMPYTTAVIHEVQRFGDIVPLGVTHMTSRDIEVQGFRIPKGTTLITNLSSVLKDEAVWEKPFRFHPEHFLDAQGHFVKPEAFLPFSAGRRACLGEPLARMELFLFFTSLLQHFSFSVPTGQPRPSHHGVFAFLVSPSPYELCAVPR

Row | Compound | IC50 [1] | metabolised [2] | metabolised [3] | Drug metabolism [4] | Drug metabolism [5] | Drug metabolism [6]
1 | Fc1ccc(-c2nc3ccc(N4CC5CC4CN5)nn3c2-c2ccncc2)cc1 (stereo not drawn) | 15.7 nM | 0% | 18% | – | – | –
2 | CC1(C)CN(c2ccc3nc(-c4cc(F)cc(F)c4)c(-c4ccncc4)n3n2)CCN1 | 43 nM | 15% | 25% | – | – | –
3 | CC1(C)CN(c2ccc3nc(-c4ccc(F)cc4)c(-c4ccncc4)n3n2)CCN1 | 14.6 nM | 27% | 52% | – | – | –
4 | c1ccc(-c2nc3ccc(N4CC5CC4CN5)nn3c2-c2ccncc2)cc1 (stereo not drawn) | 70 nM | 1% | 18% | – | – | –
5 | c1ccc(-c2nc3ccc(N4CCC(N5CCCC5)CC4)nn3c2-c2ccncc2)cc1 | 26 nM | 24.5% | 38.5% | Metabolite_Detected | Metabolite_Detected | Metabolite_Detected

Further compounds by falling IC50 [1], results first:

Row | IC50 [1] | metabolised [2] | metabolised [3] | Drug metabolism [4] | Drug metabolism [5] | Drug metabolism [6] | Compound
6 | 14.2 nM | 46% | 66% | – | – | – | C[C@H]1CN(c2ccc3nc(-c4ccc(F)cc4)c(-c4ccncc4)n3n2)CCN1
7 | 13.7 nM | 30% | 56% | – | – | – | C[C@H]1CN(c2ccc3nc(-c4ccccc4)c(-c4ccncc4)n3n2)CCN1
8 | 8.6 nM | 5% | 13% | – | – | – | Cc1cc(C)cc(-c2nc3ccc(N4CCNC(C)(C)C4)nn3c2-c2ccncc2)c1
9 | 4.6 nM | 15% | 57% | – | – | – | CC1(C)CN(c2ccc3nc(-c4ccccc4)c(-c4ccncc4)n3n2)CCN1
10 | 1 nM | 16% | 20% | – | – | – | Fc1ccc(-c2nc3ccc(N4CCC(N5CCCC5)CC4)nn3c2-c2ccncc2)cc1
